This is an account of results in ChEMBL document CHEMBL1201862, “PubChem BioAssay data set” (2004).

Among the test systems are HCT-116; HOP-92; IGROV-1; K562; LOX IMVI; Malme-3M; NCI-H226; NCI-H522; OVCAR-8; RPMI-8226; RXF 393; SF-539; SK-MEL-28; SK-MEL-2; SK-MEL-5; SK-OV-3; SNB-19; SNB-75; UACC-62.
What all share (experiment): inhibition of tumour cell growth, NCI panel, 48 h

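Five compound concentrations were applied to cells in 96-well plates for 48 hours; endpoints were derived by simple linear interpolation of the resulting dose-response curve. Abbreviation: GI50, concentration required for 50% inhibition of growth.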 The source made the active and inactive calls. Cut-off read from the data, not from the text of the source: active = GI50 up to about 1.1 µM and inactive = higher.

In the case of `CN1CCN(P2(=S)Oc3ccc4ccccc4c3-c3c(ccc4ccccc34)O2)CC1`, the GI50 in the assay with HCT-116 was 32.7 µM (inactive); with HOP-92, 13.6 µM (inactive); in the assay on IGROV-1 it was 53.1 µM (inactive); in the assay on K562 it was 20.7 µM (inactive); with LOX IMVI, 18.9 µM (inactive); in the assay with Malme-3M, 21.4 µM (inactive). The GI50 with NCI-H226 was 26.2 µM (inactive); with NCI-H522 it was 24.2 µM (inactive); in the assay on OVCAR-8, 37.2 µM (inactive); in the assay with RPMI-8226, 7.8 µM (inactive); with RXF 393, 25.6 µM (inactive); in the assay on SF-539, 21.5 µM (inactive). For the same compound, the GI50 with SK-MEL-28 is 41.1 µM (inactive); in the assay with SK-MEL-2, 18.8 µM (inactive); in the assay on SK-MEL-5, 22.2 µM (inactive); in the assay with SK-OV-3 it was > 71.3 µM (inactive); in the assay on SNB-19 it was 39.6 µM (inactive); in the assay on SNB-75, 37.5 µM (inactive). The GI50 in the assay with UACC-62 was 34.5 µM (inactive).

Regarding `COC1=C2CC(C)CC(OC)C(O)C(C)/C=C(\C)C(OC(N)=O)C(OC)/C=C\C=C(/C)C(=O)NC(=C(/C=N/C(C)(C)C)C1=O)C2=O` (stereo unspecified), the GI50 was 3.69 µM (inactive) in the assay on HCT-116; 0.303 µM (active) in the assay on HOP-92; 13.1 µM (inactive) in the assay on IGROV-1; 0.82 µM (active) with K562; 4.41 µM (inactive) in the assay with LOX IMVI; 1.89 µM (inactive) in the assay with Malme-3M. For the same compound, the GI50 in the assay on NCI-H226 was 1.75 µM (inactive); with NCI-H522, 0.279 µM (active); in the assay on OVCAR-8, 5 µM (inactive); in the assay with RPMI-8226, 0.946 µM (active); in the assay with RXF 393, 0.351 µM (active); with SF-539, 1.66 µM (inactive). In addition, the GI50 in the assay with SK-MEL-28 was 4.97 µM (inactive); with SK-MEL-2, 4.85 µM (inactive); with SK-MEL-5 it was 2.79 µM (inactive); with SK-OV-3, 24.7 µM (inactive); in the assay with SNB-19 it was 4.85 µM (inactive); with SNB-75 it was 0.767 µM (active). Also, in the assay on UACC-62, the GI50 is 5.38 µM (inactive).

With `CCOC(=O)/C=C/c1c(C)[nH]c(=O)[nH]c1=O`, the GI50 with HCT-116 is > 250 µM (inactive); in the assay with HOP-92 it was 19.1 µM (inactive); in the assay with IGROV-1 it was > 250 µM (inactive); with K562, > 250 µM (inactive); in the assay on LOX IMVI, > 250 µM (inactive); with Malme-3M, > 250 µM (inactive). In addition, the GI50 in the assay on NCI-H226 is > 250 µM (inactive); in the assay on NCI-H522 it was 102 µM (inactive); in the assay on OVCAR-8 it was 212 µM (inactive); with RPMI-8226, > 250 µM (inactive); in the assay with RXF 393, > 237 µM (inactive); in the assay with SF-539, > 250 µM (inactive). Moreover, the GI50 was > 250 µM (inactive) in the assay with SK-MEL-28; > 250 µM (inactive) with SK-MEL-2; > 250 µM (inactive) in the assay on SK-MEL-5; > 141 µM (inactive) with SK-OV-3; > 250 µM (inactive) in the assay on SNB-19; > 250 µM (inactive) in the assay on SNB-75. Moreover, in the assay with UACC-62, the GI50 was > 250 µM (inactive).

For `C/C(=N\NS(=O)(=O)c1ccccc1)c1ccccc1`, the GI50 in the assay with HCT-116, in the assay with HOP-92, with IGROV-1, in the assay on K562, in the assay with LOX IMVI and in the assay on Malme-3M was > 100 µM (inactive) each time. The GI50 is > 80.4 µM (inactive) with NCI-H226; > 100 µM (inactive) with NCI-H522; > 100 µM (inactive) in the assay on OVCAR-8; > 100 µM (inactive) with RPMI-8226; > 100 µM (inactive) in the assay with RXF 393; > 100 µM (inactive) in the assay on SF-539. Also, the GI50 with SK-MEL-28, in the assay with SK-MEL-2, in the assay with SK-MEL-5, in the assay with SK-OV-3, with SNB-19 and in the assay with SNB-75 was > 100 µM (inactive) throughout. For the same compound, the GI50 with UACC-62 was > 100 µM (inactive).
